Several values for one entry are separate records, joined by “and”; a condition that tells them apart may be missing. Equal values may be shown once. ± gives the expanded uncertainty stated by the source.
O=C(C(F)(F)C(F)(F)F)C(F)(C(F)(F)F)C(F)(F)F [dodecafluoro-2-methylpentan-3-one]
Details	thermal conductivity
333.01 K, 108 kPa, Liquid, transient hot wire	0.05128 ± 0.0011 W/m/K and 0.05126 ± 0.0011 W/m/K
333.21 K, 69192 kPa, Liquid, transient hot wire	0.07561 ± 0.0015 W/m/K
333.22 K, 69183 kPa, Liquid, transient hot wire	0.07544 ± 0.0015 W/m/K
333.25 K, 28069 kPa, Liquid, transient hot wire	0.06356 ± 0.0013 W/m/K
333.26 K, 28068 kPa, Liquid, transient hot wire	0.06353 ± 0.0013 W/m/K
333.28 K, 57706 kPa, Liquid, transient hot wire	0.07259 ± 0.0015 W/m/K
333.29 K, 57707 kPa, Liquid, transient hot wire	0.07259 ± 0.0015 W/m/K
333.34 K, 3947 kPa, Liquid, transient hot wire	0.05333 ± 0.0011 W/m/K
333.35 K, 3945 kPa, Liquid, transient hot wire	0.0533 ± 0.0011 W/m/K
333.35 K, 20435 kPa, Liquid, transient hot wire	0.06088 ± 0.0013 W/m/K
333.36 K, 20438 kPa, Liquid, transient hot wire	0.06085 ± 0.0013 W/m/K
333.37 K, 45549 kPa, Liquid, transient hot wire	0.06924 ± 0.0014 W/m/K
333.39 K, 45558 kPa, Liquid, transient hot wire	0.06943 ± 0.0014 W/m/K
333.46 K, 14103 kPa, Liquid, transient hot wire	0.05826 ± 0.0012 W/m/K
333.47 K, 14107 kPa, Liquid, transient hot wire	0.05827 ± 0.0012 W/m/K
333.47 K, 36549 kPa, Liquid, transient hot wire	0.06656 ± 0.0014 W/m/K
333.48 K, 36550 kPa, Liquid, transient hot wire	0.0665 ± 0.0014 W/m/K
333.58 K, 8568 kPa, Liquid, transient hot wire	0.0556 ± 0.0011 W/m/K
333.58 K, 8574 kPa, Liquid, transient hot wire	0.05562 ± 0.0011 W/m/K
333.67 K, 231 kPa, Liquid, transient hot wire	0.05113 ± 0.0011 W/m/K
333.67 K, 232 kPa, Liquid, transient hot wire	0.05114 ± 0.0011 W/m/K
333.7 K, 108 kPa, Liquid, transient hot wire	0.05109 ± 0.0011 W/m/K
333.71 K, 108 kPa, Liquid, transient hot wire	0.051 ± 0.0011 W/m/K
341.75 K, 117 kPa, Gas, transient hot wire	0.01428 ± 0.00089 W/m/K
341.75 K, 153 kPa, Gas, transient hot wire	0.01409 ± 0.00088 W/m/K
341.8 K, 117 kPa, Gas, transient hot wire	0.01432 ± 0.00089 W/m/K
341.81 K, 154 kPa, Gas, transient hot wire	0.01416 ± 0.00088 W/m/K
341.86 K, 61 kPa, Gas, transient hot wire	0.01468 ± 0.00091 W/m/K
341.91 K, 62 kPa, Gas, transient hot wire	0.01468 ± 0.00091 W/m/K
342.04 K, 153 kPa, Gas, transient hot wire	0.01411 ± 0.00088 W/m/K
342.05 K, 117 kPa, Gas, transient hot wire	0.01436 ± 0.00089 W/m/K
342.11 K, 116 kPa, Gas, transient hot wire	0.01434 ± 0.00089 W/m/K
342.11 K, 153 kPa, Gas, transient hot wire	0.0142 ± 0.00089 W/m/K
342.19 K, 61 kPa, Gas, transient hot wire	0.01474 ± 0.00092 W/m/K
342.23 K, 61 kPa, Gas, transient hot wire	0.01466 ± 0.00091 W/m/K
342.38 K, 153 kPa, Gas, transient hot wire	0.0142 ± 0.00091 W/m/K
342.39 K, 115 kPa, Gas, transient hot wire	0.01437 ± 0.00089 W/m/K
342.44 K, 116 kPa, Gas, transient hot wire	0.01444 ± 0.0009 W/m/K
342.44 K, 153 kPa, Gas, transient hot wire	0.01429 ± 0.00092 W/m/K
342.56 K, 60 kPa, Gas, transient hot wire	0.01477 ± 0.00092 W/m/K
342.59 K, 61 kPa, Gas, transient hot wire	0.01463 ± 0.00091 W/m/K
342.74 K, 153 kPa, Gas, transient hot wire	0.01422 ± 0.00093 W/m/K
342.76 K, 115 kPa, Gas, transient hot wire	0.0144 ± 0.0009 W/m/K
342.8 K, 153 kPa, Gas, transient hot wire	0.01428 ± 0.00093 W/m/K
342.81 K, 116 kPa, Gas, transient hot wire	0.01448 ± 0.0009 W/m/K
342.95 K, 60 kPa, Gas, transient hot wire	0.01472 ± 0.00091 W/m/K
342.98 K, 61 kPa, Gas, transient hot wire	0.01475 ± 0.00092 W/m/K
343.11 K, 153 kPa, Gas, transient hot wire	0.01428 ± 0.00089 W/m/K
343.15 K, 116 kPa, Gas, transient hot wire	0.01455 ± 0.0009 W/m/K
343.18 K, 153 kPa, Gas, transient hot wire	0.01436 ± 0.00089 W/m/K
343.2 K, 116 kPa, Gas, transient hot wire	0.0145 ± 0.0009 W/m/K
343.36 K, 60 kPa, Gas, transient hot wire	0.0147 ± 0.00092 W/m/K
343.39 K, 61 kPa, Gas, transient hot wire	0.01474 ± 0.00092 W/m/K
343.88 K, 192 kPa, Gas, hot wire	0.01563 ± 0.00078 W/m/K
343.89 K, 192 kPa, Gas, hot wire	0.01557 ± 0.00076 W/m/K
343.9 K, 170 kPa, Gas, hot wire	0.01524 ± 0.00072 W/m/K and 0.0152 ± 0.00072 W/m/K
343.91 K, 134 kPa, Gas, hot wire	0.01511 ± 0.00072 W/m/K and 0.01509 ± 0.00072 W/m/K
343.94 K, 82 kPa, Gas, hot wire	0.0148 ± 0.0007 W/m/K and 0.01481 ± 0.0007 W/m/K
343.99 K, 26 kPa, Gas, hot wire	0.01441 ± 0.00068 W/m/K
344 K, 26 kPa, Gas, hot wire	0.01439 ± 0.00068 W/m/K
344.02 K, 192 kPa, Gas, hot wire	0.01569 ± 0.00078 W/m/K
344.03 K, 192 kPa, Gas, hot wire	0.01571 ± 0.00078 W/m/K
344.04 K, 170 kPa, Gas, hot wire	0.01532 ± 0.00073 W/m/K
344.06 K, 134 kPa, Gas, hot wire	0.01505 ± 0.00071 W/m/K
344.07 K, 134 kPa, Gas, hot wire	0.01503 ± 0.00071 W/m/K
344.1 K, 82 kPa, Gas, hot wire	0.01476 ± 0.0007 W/m/K
344.1 K, 83 kPa, Gas, hot wire	0.01479 ± 0.0007 W/m/K
344.14 K, 26 kPa, Gas, hot wire	0.01446 ± 0.00068 W/m/K and 0.01445 ± 0.00068 W/m/K
344.17 K, 191 kPa, Gas, hot wire	0.01575 ± 0.00078 W/m/K and 0.01573 ± 0.00078 W/m/K
344.19 K, 169 kPa, Gas, hot wire	0.01545 ± 0.00074 W/m/K and 0.01542 ± 0.00074 W/m/K
344.21 K, 133 kPa, Gas, hot wire	0.01513 ± 0.00072 W/m/K
344.25 K, 83 kPa, Gas, hot wire	0.0148 ± 0.0007 W/m/K
344.26 K, 83 kPa, Gas, hot wire	0.01479 ± 0.0007 W/m/K
344.31 K, 26 kPa, Gas, hot wire	0.01448 ± 0.00068 W/m/K and 0.01449 ± 0.00068 W/m/K
344.31 K, 191 kPa, Gas, hot wire	0.01589 ± 0.00079 W/m/K
344.32 K, 191 kPa, Gas, hot wire	0.01586 ± 0.00079 W/m/K
344.35 K, 169 kPa, Gas, hot wire	0.01551 ± 0.00074 W/m/K and 0.01555 ± 0.00074 W/m/K
344.38 K, 132 kPa, Gas, hot wire	0.01516 ± 0.00072 W/m/K
344.38 K, 133 kPa, Gas, hot wire	0.01519 ± 0.00072 W/m/K
344.43 K, 83 kPa, Gas, hot wire	0.0148 ± 0.0007 W/m/K
344.44 K, 83 kPa, Gas, hot wire	0.01478 ± 0.0007 W/m/K
344.47 K, 191 kPa, Gas, hot wire	0.01601 ± 0.0008 W/m/K and 0.01602 ± 0.0008 W/m/K
344.49 K, 26 kPa, Gas, hot wire	0.01446 ± 0.00068 W/m/K and 0.01447 ± 0.00068 W/m/K
344.51 K, 169 kPa, Gas, hot wire	0.01563 ± 0.00075 W/m/K
